Test results from patent US8663653B2, “Efficient cell culture system for hepatitis C virus genotype 2B” (priority 2008, dated 2014).
“Also recorded” adds a separate entry of the source.

Test system: JFH1-based recombinants of genotypes 1a, 1b, 2a, 2b, and 6a
Assay type: cell-based, hepatitis C virus

| SMILES | effect on number of infected cells and supernatant HCV RNA titers |
| --- | --- |
| NC12CC3CC(CC(C3)C1)C2 [amantadine] | no apparent effect; also recorded: did not decrease the number of infected cells or supernatant HCV RNA titers |
| NC(=O)c1ncn([C@@H]2O[C@H](CO)[C@@H](O)[C@H]2O)n1 [ribavirin] | no apparent effect; also recorded: did not decrease the number of infected cells or supernatant HCV RNA titers |
